Common to all, as to test: relative viability (nuclei count vs DMSO), 5 days (fraction); higher = more cells survive
Compound in test [1]: C1CCC(CC1)N(CCNCCC2=C3C(=C(C=C2)O)NC(=O)CO3)C(=O)CCNCCC4=CC(=C(C=C4)Cl)Cl [AZ505] + O=C(c1cc(Cc2n[nH]c(=O)c3ccccc23)ccc1F)N1CCN(C(=O)C2CC2)CC1 [Olaparib] (partner 8 µM)
In a few lines:
(§1)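 After 5 days of treatment, lung cancer cells in 1536-well plates were fixed and stained in a single step (final 0.05% Triton X-100, 1% formaldehyde, 1 ug/ml Hoechst) and their nuclei counted on 4× images. Treatment had been applied by pin tool the day after seeding as one drug alone or as a fixed anchor-drug dose with five library-drug doses (not always all listed) in √10 steps. Relative viability is the nuclei count of treated wells divided by that of vehicle wells, and values are medians of duplicate plates.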

Compound in test [2]: C1CCC(CC1)N(CCNCCC2=C3C(=C(C=C2)O)NC(=O)CO3)C(=O)CCNCCC4=CC(=C(C=C4)Cl)Cl [AZ505] + NC(=O)Nc1cc(-c2cccc(F)c2)sc1C(=O)N[C@H]1CCCNC1 [AZD7762] (partner 0.2 µM)
In outline:
as §1

Compound in test [3]: Cn1c(=O)n(-c2ccc(C(C)(C)C#N)cc2)c2c3cc(-c4cnc5ccccc5c4)ccc3ncc21 [Dactolisib] + C[C@@H](Oc1cc(-c2cnn(C3CCNCC3)c2)cnc1N)c1c(Cl)ccc(F)c1Cl [Crizotinib] (partner 1 µM)
In outline: as §1

Compound in test [4]: Cn1c(=O)n(-c2ccc(C(C)(C)C#N)cc2)c2c3cc(-c4cnc5ccccc5c4)ccc3ncc21 [Dactolisib] + COc1cc2c(Oc3ccc(NC(=O)C4(C(=O)Nc5ccc(F)cc5)CC4)cc3F)ccnc2cc1OCCCN1CCOCC1 [Foretinib] (partner 0.25 µM)
In a few lines: as §1

Regarding NCI-H3122, the relative viability in test [1] (first compound 0.08 µM) stood at 0.617; in test [1] (first compound 0.253 µM), 0.689; in test [1] (first compound 0.8 µM) it was 0.618; in test [1] (first compound 2.53 µM) it was 0.629; in test [1] (first compound 8 µM) it was 0.622; in test [2] (first compound 0.08 µM), 0.923. Besides, the relative viability in test [2] (first compound 0.253 µM) turned out to be 1.01; in test [2] (first compound 0.8 µM), 1; in test [2] (first compound 2.53 µM), 0.974; in test [2] (first compound 8 µM) it was 1.03; in test [3] (first compound 0.002 µM) it was 0.284; in test [3] (first compound 0.006325 µM), 0.297. In addition, the relative viability in test [3] (first compound 0.02 µM) is 0.228; in test [3] (first compound 0.06325 µM), 0.213; in test [3] (first compound 0.2 µM), 0.217; in test [4] (first compound 0.002 µM), 0.932; in test [4] (first compound 0.006325 µM), 0.934; in test [4] (first compound 0.02 µM), 1.05. Moreover, the values for the relative viability in test [4] (first compound 0.06325 µM) and in test [4] (first compound 0.2 µM) were 1.03 and 0.855, respectively.

Take PC-3 [JPC-3]: the relative viability in test [1] (first compound 0.08 µM) was 0.918; in test [1] (first compound 0.8 µM), 0.944; in test [1] (first compound 2.53 µM) it was 1.01; in test [1] (first compound 8 µM) it was 1.15; in test [2] (first compound 0.08 µM), 0.784; in test [2] (first compound 0.8 µM), 0.843. Further, the relative viability in test [2] (first compound 2.53 µM) amounted to 0.873; in test [2] (first compound 8 µM), 1.06; in test [3] (first compound 0.002 µM) it was 1.08; in test [3] (first compound 0.006325 µM) it was 0.979; in test [3] (first compound 0.02 µM), 0.916; in test [3] (first compound 0.06325 µM), 0.874. In addition, the relative viability in test [3] (first compound 0.2 µM) worked out at 0.768; in test [4] (first compound 0.002 µM), 1.13; in test [4] (first compound 0.006325 µM), 1.06; in test [4] (first compound 0.02 µM), 1.03; in test [4] (first compound 0.06325 µM), 0.816; in test [4] (first compound 0.2 µM) it was 0.565.

As for PC-14, the relative viability is 0.302 in test [1] (first compound 0.08 µM); 0.255 in test [1] (first compound 0.253 µM); 0.248 in test [1] (first compound 0.8 µM); 0.324 in test [1] (first compound 2.53 µM); 0.241 in test [1] (first compound 8 µM); 0.366 in test [2] (first compound 0.08 µM). Moreover, the relative viability was 0.317 in test [2] (first compound 0.253 µM); 0.391 in test [2] (first compound 0.8 µM); 0.354 in test [2] (first compound 2.53 µM); 0.372 in test [2] (first compound 8 µM); 0.918 in test [3] (first compound 0.002 µM); 0.932 in test [3] (first compound 0.006325 µM). For the same cell line, the relative viability in test [3] (first compound 0.02 µM) is 0.953; in test [3] (first compound 0.06325 µM), 0.603; in test [3] (first compound 0.2 µM), 0.391; in test [4] (first compound 0.002 µM), 0.982; in test [4] (first compound 0.006325 µM), 0.97; in test [4] (first compound 0.02 µM) it was 0.973. The figures for the relative viability in test [4] (first compound 0.06325 µM) and in test [4] (first compound 0.2 µM) were 0.592 and 0.399, respectively.

Regarding RERF-LC-KJ, the relative viability is 0.947 in test [1] (first compound 0.08 µM); 0.934 in test [1] (first compound 0.253 µM); 0.995 in test [1] (first compound 0.8 µM); 0.91 in test [1] (first compound 2.53 µM); 0.842 in test [1] (first compound 8 µM); 0.95 in test [2] (first compound 0.08 µM). The relative viability amounted to 0.964 in test [2] (first compound 0.253 µM); 0.923 in test [2] (first compound 0.8 µM); 0.98 in test [2] (first compound 2.53 µM); 0.909 in test [2] (first compound 8 µM); 1.01 in test [3] (first compound 0.002 µM); 0.86 in test [3] (first compound 0.006325 µM). Further, the relative viability is 0.84 in test [3] (first compound 0.02 µM); 0.668 in test [3] (first compound 0.06325 µM); 0.582 in test [3] (first compound 0.2 µM); 0.852 in test [4] (first compound 0.002 µM); 0.826 in test [4] (first compound 0.006325 µM); 0.87 in test [4] (first compound 0.02 µM). Also, the relative viability in test [4] (first compound 0.06325 µM) worked out at 0.527; in test [4] (first compound 0.2 µM), 0.399.

The values are drawn from the supplement of paper PMC10307832.
